Measured values as given in patent publication US20240252456A1, “ORAL COMPOSITION, SKIN COSMETIC AND HAIR COSMETIC” (MARUZEN PHARMACEUTICALS CO., LTD., priority 2021, published 2024).

Assays:
elastase type III = molecular target: T1, elastase type III (Sus scrofa, UniProt P00772); assay: Elastase activity inhibitory action test; type: biochemical; conditions: read-out: Elastase activity inhibition rate; for inhibition at 1000 µM: 1000 μmol/L
T1 construct: purchased SIGMA-Aldrich type III
Procedure: In a 96-well microplate, 50 μL of each of test samples (Samples 1 to 3, see Table 8 below for final concentrations) prepared with 0.2 mol/L Tris-HCl buffer solution (pH 8.0) and 50 μL of 20 μg/mL elastase type III (available from SIGMA-Aldrich) solution was mixed. After that, 100 μL of 0.4514 mg/mL N-succinyl-Ala-Ala-Ala-p-nitroanilide (available from SIGMA-Aldrich) prepared with the above buffer solution was added, and the mixture was reacted at 25° C. for 15 minutes. After the reaction was completed, the absorbance at a wavelength of 415 nm was measured. In addition, a blank test without enzyme addition was performed in the same manner and correction was made. From the obtained results, the elastase activity inhibition rate (%) was calculated using the following equation.
Terms in the equation represent the following respective ones. • A: Absorbance at wavelength 415 nm without sample addition and with enzyme addition • B: Absorbance at wavelength 415 nm without sample addition and without enzyme addition • C: Absorbance at wavelength 415 nm with test sample addition and with enzyme addition • D: Absorbance at wavelength 415 nm with test sample addition and without enzyme addition

[1] = test system: Normal human liver cells (hepatocytes); assay: Glutathione production promotive action test (hepatocytes); type: cell-based; conditions: 24 hours
Procedure: (§1) Normal human liver cells (hepatocytes) were cultured using Dulbecco's modified Eagle's medium (DMEM) containing 10% FBS, and then the cells were collected by a trypsin treatment. The collected cells were diluted with DMEM containing 10% FBS to a cell density of 10×10^4 cells/mL, then seeded with 200 μL per well in a 48-well plate, and cultured overnight.
After culturing, the medium was removed, 200 μL of each of test samples (Samples 1 to 3, see Table 30 below for final concentrations) dissolved in DMEM containing 1% FBS was added to each well, and culturing was further performed for 24 hours. As a control, culturing was performed in the same manner using DMEM containing 1% FBS to which no sample was added. After the culturing was completed, the medium was removed from each well, and the cells were washed with 400 μL of PBS(−) and then lysed using 150 μL of M-PER (available from PIERCE).
Quantitative determination of total glutathione was performed using 100 μL of the lysed cells. That is, 100 μL of lysed cell extract, 50 μL of 0.1 mol/L phosphate buffer solution, 25 μL of 2 mmol/L NADPH, and 25 μL of 3.2 unit/mL glutathione reductase were added to a 96-well plate and heated at 37° C. for 10 minutes, then 25 μL of 10 mmol/L 5,5′-dithiobis(2-nitrobenzoic acid) was added, and the absorbance at a wavelength of 412 nm was measured until 5 minutes later to determine ΔOD/min. The total glutathione concentration was calculated based on a calibration curve created using oxidized glutathione (available from FUJIFILM Wako Pure Chemical Corporation). After correcting the obtained value to the glutathione value per total protein amount, the glutathione production promotion rate (%) was calculated based on the following equation.
Terms in the equation represent the following respective ones. • A: Glutathione amount per total protein amount without sample addition • B: Glutathione amount per total protein amount with test sample addition

[2] = test system: Normal human liver cells (hepatocytes); assay: ATP production promotive action test in hepatocytes; type: cell-based; conditions: 2 hours
Procedure: as §1, with “2.0×10^5” for “10×10^4”, “100” for “200”, “96-well” for “48-well”
After the culturing was completed, the medium was removed, 100 μL of each of test samples (Samples 1 to 3, see Table 31 below for final concentrations) dissolved in DMEM containing 10% FBS was added to each well, and culturing was performed for 2 hours. As a control, culturing was performed in the same manner using DMEM containing 10% FBS to which no sample was added.
The ATP production promotive action was evaluated by measuring the amount of ATP in cells using the firefly luciferase luminescence method. That is, after culturing for 2 hours, 100 μL of an ATP measurement reagent (available from Toyo B-Net Co., Ltd., trade name “‘Cellular’ ATP measurement reagent”) was added to each well, and chemiluminescence reaction using luciferase was performed. After the reaction, the amount of chemiluminescence proportional to the amount of intracellular ATP was measured using a chemiluminescence measurement device (available from Thermo Fisher Scientific, product name: Varioskan LUX multimode microplate reader). From the obtained results, the ATP production promotion rate (%) was calculated using the following equation.
Terms in the equation represent the following respective ones. • A: Chemiluminescence amount with test sample addition • B: Chemiluminescence amount without sample addition

T1 sequence (P00772 27-266): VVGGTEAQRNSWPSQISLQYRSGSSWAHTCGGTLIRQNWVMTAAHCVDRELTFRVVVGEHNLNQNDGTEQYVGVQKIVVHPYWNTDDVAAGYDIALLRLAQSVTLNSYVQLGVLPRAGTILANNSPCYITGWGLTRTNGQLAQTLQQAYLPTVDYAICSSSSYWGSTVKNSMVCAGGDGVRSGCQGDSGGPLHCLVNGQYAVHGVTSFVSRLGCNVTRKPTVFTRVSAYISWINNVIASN

O=C(O)CCc1ccc(O)c(O)c1 [Sample 1, 3,4-Dihydroxyhydrocinnamic acid]
inhibition at 250 µM (elastase type III; 250 μmol/L): 3.2%
inhibition at 500 µM (elastase type III; 500 μmol/L): 6.7%
inhibition at 1000 µM (elastase type III): 8.1%
Glutathione production promotion rate ([1]; 31.2 μmol/L): 123.9%
Glutathione production promotion rate ([1]; 125 μmol/L): 124.8%
Glutathione production promotion rate ([1]; 500 μmol/L): 113.4%
ATP production promotion rate ([2]; 250 μmol/L): 128.4%
ATP production promotion rate ([2]; 500 μmol/L): 166.8%
ATP production promotion rate ([2]; 1000 μmol/L): 168.9%

O=C(O)CCc1ccc(O)cc1 [Sample 2, 3-(4-Hydroxyphenyl)propionic acid]
inhibition at 1000 µM (elastase type III): 4.2%
Glutathione production promotion rate ([1]; 31.2 μmol/L): 119.2%
Glutathione production promotion rate ([1]; 125 μmol/L): 118.1%
ATP production promotion rate ([2]; 250 μmol/L): 141.9%
ATP production promotion rate ([2]; 500 μmol/L): 159.1%
ATP production promotion rate ([2]; 1000 μmol/L): 165.1%

O=C(O)CCc1ccccc1 [Sample 3, 3-phenylpropionic acid]
inhibition at 1000 µM (elastase type III): 5%
Glutathione production promotion rate ([1]; 31.2 μmol/L): 133.9%
Glutathione production promotion rate ([1]; 125 μmol/L): 124.6%
Glutathione production promotion rate ([1]; 500 μmol/L): 119.2%
ATP production promotion rate ([2]; 250 μmol/L): 128.0%
ATP production promotion rate ([2]; 500 μmol/L): 136.5%
ATP production promotion rate ([2]; 1000 μmol/L): 156.1%
